Conditions: Cohort 2 200 mg BID

CC(C)NC(=O)COc1cccc(-c2nc(Nc3ccc4[nH]ncc4c3)c3ccccc3n2)c1 [Belumosudil, 2-{3-[4-(1H-indazol-5-ylamino)-2-quinazolinyl]phenoxy}-N-(propan-2-yl) acetamide]
Oedema: # Events: 1 | Oedema: Affected/At Risk: 1/16 | Oedema: Affected/At Risk (%): (6.25%) | Oesophageal ulcer: # Events: 1 | Oesophageal ulcer: Affected/At Risk: 1/16 | Oesophageal ulcer: Affected/At Risk (%): (6.25%) | Oral candidiasis: # Events: 1 | Oral candidiasis: Affected/At Risk: 1/16 | Oral candidiasis: Affected/At Risk (%): (6.25%) | Oropharyngeal pain: # Events: 0 | Oropharyngeal pain: Affected/At Risk: 0/16 | Oropharyngeal pain: Affected/At Risk (%): (0%) | Orthopnoea: # Events: 0 | Orthopnoea: Affected/At Risk: 0/16 | Orthopnoea: Affected/At Risk (%): (0%) | Osteonecrosis: # Events: 0 | Osteonecrosis: Affected/At Risk: 0/16 | Osteonecrosis: Affected/At Risk (%): (0%) | Osteopenia: # Events: 1 | Osteopenia: Affected/At Risk: 1/16 | Osteopenia: Affected/At Risk (%): (6.25%) | Osteoporosis: # Events: 1 | Osteoporosis: Affected/At Risk: 1/16 | Osteoporosis: Affected/At Risk (%): (6.25%) | Overdose: # Events: 0 | Overdose: Affected/At Risk: 0/16 | Overdose: Affected/At Risk (%): (0%) | Pain in extremity: # Events: 3 | Pain in extremity: Affected/At Risk: 2/16 | Pain in extremity: Affected/At Risk (%): (12.5%) | Pain: # Events: 0 | Pain: Affected/At Risk: 0/16 | Pain: Affected/At Risk (%): (0%) | Palpitations: # Events: 0 | Palpitations: Affected/At Risk: 0/16 | Palpitations: Affected/At Risk (%): (0%) | Paraesthesia: # Events: 1 | Paraesthesia: Affected/At Risk: 1/16 | Paraesthesia: Affected/At Risk (%): (6.25%) | Participants with TEAE: 16 (100%) participants | Participants with TESAE: 6 (38%) participants | Pericardial effusion: # Events: 0 | Pericardial effusion: Affected/At Risk: 0/16 | Pericardial effusion: Affected/At Risk (%): (0%) | Peripheral coldness: # Events: 0 | Peripheral coldness: Affected/At Risk: 0/16 | Peripheral coldness: Affected/At Risk (%): (0%) | Peripheral sensory neuropathy: # Events: 1 | Peripheral sensory neuropathy: Affected/At Risk: 1/16 | Peripheral sensory neuropathy: Affected/At Risk (%): (6.25%) | Phlebitis: # Events: 1 | Phlebitis: Affected/At Risk: 1/16 | Phlebitis: Affected/At Risk (%): (6.25%) | Photophobia: # Events: 1 | Photophobia: Affected/At Risk: 1/16 | Photophobia: Affected/At Risk (%): (6.25%) | Platelet count decreased: # Events: 0 | Platelet count decreased: Affected/At Risk: 0/16 | Platelet count decreased: Affected/At Risk (%): (0%) | Pleural effusion: # Events: 0 | Pleural effusion: Affected/At Risk: 0/16 | Pleural effusion: Affected/At Risk (%): (0%) | Pneumonia respiratory syncytial viral: # Events: 1 | Pneumonia respiratory syncytial viral: Affected/At Risk: 1/16 | Pneumonia respiratory syncytial viral: Affected/At Risk (%): (6.25%) | Pneumonia: # Events: 3 | Pneumonia: Affected/At Risk: 3/16 | Pneumonia: Affected/At Risk (%): (18.75%) | Pollakiuria: # Events: 0 | Pollakiuria: Affected/At Risk: 0/16 | Pollakiuria: Affected/At Risk (%): (0%) | Presyncope: # Events: 3 | Presyncope: Affected/At Risk: 3/16 | Presyncope: Affected/At Risk (%): (18.75%) | Productive cough: # Events: 7 | Productive cough: Affected/At Risk: 2/16 | Productive cough: Affected/At Risk (%): (12.5%) | Proteinuria: # Events: 1 | Proteinuria: Affected/At Risk: 1/16 | Proteinuria: Affected/At Risk (%): (6.25%) | Pruritus: # Events: 4 | Pruritus: Affected/At Risk: 2/16 | Pruritus: Affected/At Risk (%): (12.5%) | Pseudomonas infection: # Events: 2 | Pseudomonas infection: Affected/At Risk: 1/16 | Pseudomonas infection: Affected/At Risk (%): (6.25%) | Pulmonary mass: # Events: 1 | Pulmonary mass: Affected/At Risk: 1/16 | Pulmonary mass: Affected/At Risk (%): (6.25%) | Pyrexia: # Events: 6 | Pyrexia: Affected/At Risk: 3/16 | Pyrexia: Affected/At Risk (%): (18.75%) | Rash erythematous: # Events: 1 | Rash erythematous: Affected/At Risk: 1/16 | Rash erythematous: Affected/At Risk (%): (6.25%) | Rash maculo-papular: # Events: 0 | Rash maculo-papular: Affected/At Risk: 0/16 | Rash maculo-papular: Affected/At Risk (%): (0%) | Rash pustular: # Events: 1 | Rash pustular: Affected/At Risk: 1/16 | Rash pustular: Affected/At Risk (%): (6.25%) | Rash: # Events: 1 | Rash: Affected/At Risk: 1/16 | Rash: Affected/At Risk (%): (6.25%) | Red blood cells urine positive: # Events: 1 | Red blood cells urine positive: Affected/At Risk: 1/16 | Red blood cells urine positive: Affected/At Risk (%): (6.25%) | Renal failure: # Events: 1 | Renal failure: Affected/At Risk: 1/16 | Renal failure: Affected/At Risk (%): (6.25%) | Respiratory syncytial virus infection: # Events: 1 | Respiratory syncytial virus infection: Affected/At Risk: 1/16 | Respiratory syncytial virus infection: Affected/At Risk (%): (6.25%) | Respiratory tract infection fungal: # Events: 0 | Respiratory tract infection fungal: Affected/At Risk: 0/16 | Respiratory tract infection fungal: Affected/At Risk (%): (0%) | Respiratory tract infection: # Events: 0 | Respiratory tract infection: Affected/At Risk: 0/16 | Respiratory tract infection: Affected/At Risk (%): (0%) | Restless legs syndrome: # Events: 1 | Restless legs syndrome: Affected/At Risk: 1/16 | Restless legs syndrome: Affected/At Risk (%): (6.25%) | Rosacea: # Events: 1 | Rosacea: Affected/At Risk: 1/16 | Rosacea: Affected/At Risk (%): (6.25%) | SAE Abdominal wall haematoma, # events: 0 | SAE Abdominal wall haematoma, affected/at risk: 0/16 | SAE Acute kidney injury, # events: 1 | SAE Acute kidney injury, affected/at risk: 1/16 | SAE Acute lymphocytic leukaemia recurrent, # events: 0 | SAE Acute lymphocytic leukaemia recurrent, affected/at risk: 0/16 | SAE Acute respiratory failure, # events: 0 | SAE Acute respiratory failure, affected/at risk: 0/16 | SAE Anaphylactic reaction, # events: 0 | SAE Anaphylactic reaction, affected/at risk: 0/16 | SAE Bacteraemia, # events: 1 | SAE Bacteraemia, affected/at risk: 1/16

— patent publication US20250255867A1 (Kadmon Corporation, LLC, priority 2022, published 2025)
